Measured values taken from US20260008746A1, “CATIONIC LIPID COMPOUND WITH HIGH EFFICIENCY, LOW TOXICITY AND STABLE EXPRESSION, AND COMPOSITION COMPRISNG SAME” (HANGZHOU TIANLONG PHARMACEUTICAL CO., LTD, priority 2023, published 2026).
Several values for one entry are separate records, joined by “and”; a condition that tells them apart may be missing. Equal values may be shown once.

Legend:
[1] = Determination of particle size and polydispersity index (PDI) of lipid nanoparticles by dynamic light scattering; format: physicochemical; details: LNP formulation of named cationic lipid/DSPC/cholesterol/DMG-PEG2000 49:10:39.5:1.5; for Particle size (nm): 90° scattering angle, 25° C
In short: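 LNPs of cationic lipid/DSPC/cholesterol/DMG-PEG2000 (49:10:39.5:1.5 mol%), lipid:mRNA 15:1 w/w, carrying eGFP or Fluc mRNA, made by ethanol injection into citrate buffer pH 4–5, sonicated, PBS-exchanged by ultrafiltration. Size and PDI by dynamic light scattering after dilution in RNase-free water, 90° angle, 25 °C, triplicate.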

[2] = tested on: 293T cells; test: Fluorescent detection of Fluc-mRNA (cell transfection efficiency of LNP formulations); format: cell-based; details: for Relative light unit (RLU): LNP formulation containing 0.3 μg Fluc-mRNA, 96-well plate, 24 hours; for Multiples (YK-101): RLU of YK-101 / RLU of named substance; for Multiples (YK-107): RLU of YK-107 / RLU of named substance; for Multiples (YK-108): RLU of YK-108 / RLU of named substance; for Ratio relative to SM-102: RLU of named substance / RLU of SM-102; for difference from SM-102 in Fluc-mRNA fluorescence (GraphPad Prism analysis): statistical comparison with SM-102
In short: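 293T cells seeded at 10,000 per well, cultured overnight, then given LNP carrying 0.3 μg Fluc-mRNA (cationic:neutral:structured:PEG-lipid 49:10:39.5:1.5 molar). Incubated 24 h. Luciferase signal read with kit reagent on an IVIS imaging system.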

[3] = tested on: 293T cells; test: Cell survival rate determination (CCK-8); format: cell-based; details: for Cell survival rate (%): LNP formulation containing 1.5 μg Fluc-mRNA, 24 hours, CCK-8, absorbance at 450 nm; for cell survival rate lower than that of YK-101: cell survival rate of YK-101 minus that of named substance; for cell survival rate lower than that of YK-107: cell survival rate of YK-107 minus that of named substance; for cell survival rate lower than that of YK-108: cell survival rate of YK-108 minus that of named substance
In short: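 293T cells were seeded overnight at 10,000 cells/well in 96-well plates, then exposed for 24 h to LNP containing 1.5 μg Fluc-mRNA (cationic:neutral:structural:polymer-conjugated lipid, 49:10:39.5:1.5 molar) or to Lipofectamine 3000. Viability was read by CCK-8, 1 h incubation, absorbance 450 nm.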

[4] = tested on: BALB/C mice; test: In vivo imaging of Fluc-mRNA expression in mice delivered by LNP formulations; details: for average radiation intensity, 6 h / average radiation intensity, 24 h / average radiation intensity, 48 h / average radiation intensity, 7 d: LNP containing 10 pg Fluc-mRNA, intramuscular, female BALB/C mice
In short: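 Female BALB/C mice (4-6 weeks, 17-19 g) received LNP carrying […] Fluc-mRNA intramuscularly. Substrate was given intraperitoneally at 6 h, 24 h, 48 h and 7 d, and average radiance was imaged by IVIS 5 min later.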

[5] = highest multiple, time point not stated

In the case of CCCCCCCCCCOC(=O)CCCN(CCCCCC(=O)OCC(CCCCCCCC)CCCCCCCC)CCOC(=O)CCCN(C)C [YK-126], the “PDI(%)” value [1] is reported as 15.1%, the “Particle size (nm)” value [1] is reported as 260 nm and the “cell transfection activity, times that of YK-125” value [2] is reported as 1.3 times. For the same compound, the “Relative light unit (RLU)” value [2] was 219983 RLU, the “Multiples (YK-101)” value [2] was 92.44 and the “Multiples (YK-107)” value [2] was 101.65. For the same compound, the “Multiples (YK-108)” value [2] was 112.10, the “fluorescence absorption value, times that of HHMA” value ([2]; RLU of named substance / RLU of HHMA) was 0.11 times and the “fluorescence absorption value, times that of Lipofectamine 3000” value ([2]; RLU of named substance / RLU of Lipofectamine 3000) was 0.20 times. The “Ratio relative to SM-102” value [2] was 0.14, the “Fluc-mRNA expression signal intensity, times that of compound 21” value ([2]; RLU of named substance / RLU of compound 21) was 0.16 times and the “fluorescence absorption value, times that of compound 23” value ([2]; RLU of named substance / RLU of compound 23) was 0.17 times. The “difference from SM-102 in Fluc-mRNA fluorescence (GraphPad Prism analysis)” value [2] was “significant difference”, the “cell survival rate lower than that of YK-122” value [3] was 54.12% and the “cell survival rate lower than that of YK-124” value [3] was 52.53%. The “Cell survival rate (%)” value [3] was 25.03%, the “cell survival rate lower than that of YK-101” value [3] was 60% and 65.09% and the “cell survival rate lower than that of YK-107” value [3] was 60% and 65.42%. For the same compound, the “cell survival rate lower than that of YK-108” value [3] was 60% and 64.83%, the “average radiation intensity of YK-101, times that of named substance” value ([4]; 6 h) was 9.6 times and the “average radiation intensity of YK-107, times that of named substance” value ([4]; 6 h) was 10.3 times. For the same compound, the “average radiation intensity of YK-108, times that of named substance” value ([4]; 6 h) was 13.0 times, the “average radiation intensity of YK-101, times that of named substance” value ([4]; 24 h) was 50.4 times and the “average radiation intensity of YK-107, times that of named substance” value ([4]; 24 h) was 62.2 times. For the same compound, the “average radiation intensity of YK-108, times that of named substance” value ([4]; 24 h) was 67.1 times, the “average radiation intensity of YK-101, times that of named substance” value ([4]; 48 h) was 27.9 times and the “average radiation intensity of YK-107, times that of named substance” value ([4]; 48 h) was 34.0 times. The “average radiation intensity of YK-108, times that of named substance” value ([4]; 48 h) was 34.6 times, the “average radiation intensity of YK-101, times that of named substance” value ([4]; 7 d) was 13.9 times and the “average radiation intensity of YK-107, times that of named substance” value ([4]; 7 d) was 15.2 times. The “average radiation intensity of YK-108, times that of named substance” value ([4]; 7 d) was 16.2 times, the “average radiation intensity, 6 h” value ([4]; 6 h) was 155160 and the “average radiation intensity, 24 h” value ([4]; 24 h) was 20939. The “average radiation intensity, 48 h” value ([4]; 48 h) was 6656, the “average radiation intensity, 7 d” value ([4]; 7 d) was 877 and the “expression amount of mRNA in mice of YK-101, times that of named substance” value [4, 5] was 50 times. The “expression amount of mRNA in mice of YK-107, times that of named substance” value [4, 5] was 62 times.
In the case of CCCCCCCCC(CCCCCCCC)OC(=O)CCCCCCCN(CCO)CCCCCCCC(=O)OCCC(CCCCCC)CCCCCC [Compound 21, 9-heptadecyl 8-(8-((3-hexylnonyl)oxy)-8-oxoctyl)-((2-hydroxyethyl)amino)octoate, reference compound], the “PDI(%)” value [1] is reported as 12.5%, the “Particle size (nm)” value [1] is reported as 151 nm and the “Relative light unit (RLU)” value [2] is reported as 1389141 RLU. For the same compound, the “Multiples (YK-101)” value [2] was 14.64, the “Multiples (YK-107)” value [2] was 16.10 and the “Multiples (YK-108)” value [2] was 17.75. The “Ratio relative to SM-102” value [2] was 0.91, the “Cell survival rate (%)” value [3] was 68.53% and the “cell survival rate lower than that of YK-101” value [3] was 21.59%. For the same compound, the “cell survival rate lower than that of YK-107” value [3] was 21.92%, the “cell survival rate lower than that of YK-108” value [3] was 21.33% and the “average radiation intensity of YK-101, times that of named substance” value ([4]; 6 h) was 2.5 times. The “average radiation intensity of YK-107, times that of named substance” value ([4]; 6 h) was 2.6 times, the “average radiation intensity of YK-108, times that of named substance” value ([4]; 6 h) was 3.3 times and the “average radiation intensity of YK-101, times that of named substance” value ([4]; 24 h) was 9.6 times. For the same compound, the “average radiation intensity of YK-107, times that of named substance” value ([4]; 24 h) was 11.8 times, the “average radiation intensity of YK-108, times that of named substance” value ([4]; 24 h) was 12.8 times and the “average radiation intensity of YK-101, times that of named substance” value ([4]; 48 h) was 6.0 times. For the same compound, the “average radiation intensity of YK-107, times that of named substance” value ([4]; 48 h) was 7.3 times, the “average radiation intensity of YK-108, times that of named substance” value ([4]; 48 h) was 7.4 times and the “average radiation intensity of YK-101, times that of named substance” value ([4]; 7 d) was 2.0 times. For the same compound, the “average radiation intensity of YK-107, times that of named substance” value ([4]; 7 d) was 2.2 times, the “average radiation intensity of YK-108, times that of named substance” value ([4]; 7 d) was 2.4 times and the “average radiation intensity, 6 h” value ([4]; 6 h) was 606680. For the same compound, the “average radiation intensity, 24 h” value ([4]; 24 h) was 110210, the “average radiation intensity, 48 h” value ([4]; 48 h) was 31062 and the “average radiation intensity, 7 d” value ([4]; 7 d) was 6024.
With CCCCCCCCCC(=O)OCCCCN(CCO)CCCCCC(=O)OCC(CCCCCCCC)CCCCCCCC [YK-106] the “PDI(%)” value [1] was 14.4%, the “Particle size (nm)” value [1] was 140 nm and the “Relative light unit (RLU)” value [2] was 1628063 RLU. The “Multiples (YK-101)” value [2] was 12.49, the “Multiples (YK-107)” value [2] was 13.73 and the “Multiples (YK-108)” value [2] was 15.15. For the same compound, the “Ratio relative to SM-102” value [2] was 1.06, the “difference from SM-102 in Fluc-mRNA fluorescence (GraphPad Prism analysis)” value [2] was “no significant difference” and the “Cell survival rate (%)” value [3] was 59.59%. For the same compound, the “cell survival rate lower than that of YK-101” value [3] was 30.53%, the “cell survival rate lower than that of YK-107” value [3] was 30.86% and the “cell survival rate lower than that of YK-108” value [3] was 30.27%. For the same compound, the “average radiation intensity of YK-101, times that of named substance” value ([4]; 6 h) was 2.2 times, the “average radiation intensity of YK-107, times that of named substance” value ([4]; 6 h) was 2.3 times and the “average radiation intensity of YK-108, times that of named substance” value ([4]; 6 h) was 2.9 times. The “average radiation intensity of YK-101, times that of named substance” value ([4]; 24 h) was 10.0 times, the “average radiation intensity of YK-107, times that of named substance” value ([4]; 24 h) was 12.3 times and the “average radiation intensity of YK-108, times that of named substance” value ([4]; 24 h) was 13.3 times. For the same compound, the “average radiation intensity of YK-101, times that of named substance” value ([4]; 48 h) was 5.6 times, the “average radiation intensity of YK-107, times that of named substance” value ([4]; 48 h) was 6.9 times and the “average radiation intensity of YK-108, times that of named substance” value ([4]; 48 h) was 7.0 times. For the same compound, the “average radiation intensity of YK-101, times that of named substance” value ([4]; 7 d) was 1.7 times, the “average radiation intensity of YK-107, times that of named substance” value ([4]; 7 d) was 1.9 times and the “average radiation intensity of YK-108, times that of named substance” value ([4]; 7 d) was 2.0 times. The “average radiation intensity, 6 h” value ([4]; 6 h) was 683840, the “average radiation intensity, 24 h” value ([4]; 24 h) was 105776 and the “average radiation intensity, 48 h” value ([4]; 48 h) was 32940. The “average radiation intensity, 7 d” value ([4]; 7 d) was 7052.
